Results from ChEMBL document CHEMBL1139733, “Aminopyridine carboxamides as c-Jun N-terminal kinase inhibitors: targeting the gatekeeper residue and beyond” (Bioorg Med Chem Lett, 2006).

Key:
[1] = biological target: Mitogen-activated protein kinase 8 (Homo sapiens, UniProt P45983); experiment: Inhibition of JNK1 by ATF2 phosphorylation assay; type: functional
[2] = biological target: c-Jun N-terminal kinase, JNK (Homo sapiens, UniProt P45983+P53779+P45984); experiment: Inhibition of PcJun phosphorylation in HepG2 cells; type: functional, cell-based
[3] = biological target: Mitogen-activated protein kinase 9 (Homo sapiens, UniProt P45984); experiment: Inhibition of JNK2 by ATF2 phosphorylation assay; type: functional
Sequence of Mitogen-activated protein kinase 9 (P45984 whole entry): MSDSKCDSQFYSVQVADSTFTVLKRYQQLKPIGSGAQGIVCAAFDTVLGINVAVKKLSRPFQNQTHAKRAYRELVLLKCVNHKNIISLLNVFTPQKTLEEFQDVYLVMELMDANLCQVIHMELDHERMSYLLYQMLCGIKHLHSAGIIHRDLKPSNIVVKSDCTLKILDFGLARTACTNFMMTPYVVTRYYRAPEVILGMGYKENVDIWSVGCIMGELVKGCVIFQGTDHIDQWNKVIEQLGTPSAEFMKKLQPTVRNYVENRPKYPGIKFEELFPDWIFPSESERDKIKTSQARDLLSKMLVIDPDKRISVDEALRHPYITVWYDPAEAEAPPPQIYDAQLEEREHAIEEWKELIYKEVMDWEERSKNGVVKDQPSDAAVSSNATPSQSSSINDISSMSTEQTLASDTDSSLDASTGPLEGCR

Sequence of Mitogen-activated protein kinase 8 (P45983 whole entry): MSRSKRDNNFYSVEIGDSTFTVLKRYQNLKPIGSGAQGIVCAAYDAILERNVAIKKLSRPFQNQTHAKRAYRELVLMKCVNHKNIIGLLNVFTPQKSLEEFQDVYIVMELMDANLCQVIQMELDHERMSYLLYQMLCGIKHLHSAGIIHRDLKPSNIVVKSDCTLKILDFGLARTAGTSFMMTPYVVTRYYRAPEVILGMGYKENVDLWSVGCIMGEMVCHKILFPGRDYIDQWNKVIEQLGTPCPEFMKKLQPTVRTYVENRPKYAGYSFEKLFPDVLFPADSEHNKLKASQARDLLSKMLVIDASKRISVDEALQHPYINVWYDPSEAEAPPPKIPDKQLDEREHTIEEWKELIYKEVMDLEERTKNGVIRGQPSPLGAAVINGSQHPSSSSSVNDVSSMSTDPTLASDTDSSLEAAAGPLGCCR

Row | Compound | IC50 [1] [nM] | IC50 [2] [nM] | IC50 [3] [nM]
1 | CS(=O)(=O)c1ccc(CNC(=O)c2cc(N)c(C#N)c(/C=C/c3ccccc3)n2)cc1 | 1450 | 350 | 1290
2 | CCOc1nc(C(=O)NCc2ccc(S(C)(=O)=O)cc2)cc(N)c1C(N)=O | 318 | 7540 | 969
3 | CS(=O)(=O)c1ccc(CNC(=O)c2cc(N)c(C#N)c(CCC(=O)O)n2)cc1 | 1640 |  | 6920
4 | CS(=O)(=O)c1ccc(CNC(=O)c2cc(N)c(C#N)c(OCC3CC3)n2)cc1 | 23 | 560 | 47
5 | CS(=O)(=O)c1ccc(CNC(=O)c2cc(N)c(C#N)c(NC(CO)CO)n2)cc1 | 76 | > 10000 | 100
6 | C#Cc1c(N)cc(C(=O)NCc2ccc(S(C)(=O)=O)cc2)nc1OCC | 350 | 1890 | 300
7 | COc1cccc(-c2nc(C(=O)NCc3ccc(S(C)(=O)=O)cc3)cc(N)c2C#N)c1 | 430 | 1800 | 600
8 | C#C/C=C/c1c(N)cc(C(=O)NCc2ccc(S(C)(=O)=O)cc2)nc1OCC | 79 | 1400 | 300
9 | CS(=O)(=O)c1ccc(CNC(=O)c2cc(N)c(C#N)c(NC3CCCC3)n2)cc1 | 96 | 480 | 290
10 | CC(C)NC(=O)c1nc(C(=O)NCc2ccc(S(C)(=O)=O)cc2)cc(N)c1C#N | 430 | 2900 | 120
11 | CC(C)[C@@H](CO)Nc1nc(C(=O)NCc2ccc(S(C)(=O)=O)cc2)cc(N)c1C#N | 1500 |  | 1400
12 | C[C@@H](CO)Nc1nc(C(=O)NCc2ccc(S(C)(=O)=O)cc2)cc(N)c1C#N | 22 | 2600 | 30
13 | CS(=O)(=O)c1ccc(CNC(=O)c2cc(N)c(C#N)c(NCCNC(N)=O)n2)cc1 | 93 | > 10000 | 
14 | CCOc1nc(C(=O)NCc2ccc(S(C)(=O)=O)cc2)cc(N)c1C#Cc1ccsc1 | 3430 |  | > 10000
15 | CC(C)Nc1nc(C(=O)NCc2ccc(S(C)(=O)=O)cc2)cc(N)c1C#N | 67 | 490 | 84
16 | CC(C)Oc1nc(C(=O)NCc2ccc(S(C)(=O)=O)cc2)cc(N)c1C#N | 15 | 250 | 38
17 | CS(=O)(=O)c1ccc(CNC(=O)c2cc(N)c(C#N)c(-c3ccsc3CNCc3ccccc3)n2)cc1 | 1990 | 8010 | 
18 | CS(=O)(=O)c1ccc(CNC(=O)c2cc(N)c(C#N)c(-c3ccsc3)n2)cc1 | 81 | 610 | 390
19 | CS(=O)(=O)c1ccc(CNC(=O)c2cc(N)c(C#N)c(-c3cccc(S(C)(=O)=O)c3)n2)cc1 | 43 | 10500 | 97
20 | CS(=O)(=O)c1ccc(CNC(=O)c2cc(N)c(C#N)c(-c3cccnc3)n2)cc1 | 320 | 7300 | 340
21 | CCOc1nc(C(=O)NCc2ccc(S(C)(=O)=O)cc2)cc(N)c1C#C/C=C/CO | 1550 | 5240 | 4320
22 | CCOc1nc(C(=O)NCc2ccc(S(C)(=O)=O)cc2)cc(N)c1/C=C/C#N | 410 | 807 | 1790
23 | CS(=O)(=O)c1ccc(CNC(=O)c2cc(N)c(C#N)c(-c3ccoc3)n2)cc1 | 270 | 4300 | 530
24 | CS(=O)(=O)c1ccc(CNC(=O)c2cc(N)c(C#N)c(NCCC(N)=O)n2)cc1 | 66 | > 10000 | 87
25 | CS(=O)(=O)c1ccc(CNC(=O)c2cc(N)c(C#N)c(/C=C/C(=O)O)n2)cc1 | 300 | > 2500 | 430
26 | C=Cc1c(N)cc(C(=O)NCc2ccc(S(C)(=O)=O)cc2)nc1OCC | 1180 | 4630 | 1460
27 | CCCNC(=O)c1c(N)cc(C(=O)NCc2ccc(S(C)(=O)=O)cc2)nc1OCC | 5250 |  | 
28 | CS(=O)(=O)c1ccc(CNC(=O)c2cc(N)c(C#N)c(NC3CC3)n2)cc1 | 32 | 1200 | 69

Row | Compound | IC50 [1] [nM] | IC50 [2] [nM] | IC50 [3] [nM]
29 | C/C=C/c1nc(C(=O)NCc2ccc(S(C)(=O)=O)cc2)cc(N)c1C#N | 48 | 890 | 230
30 | CS(=O)(=O)c1ccc(CNC(=O)c2cc(N)c(C#N)c(-c3ccc(C(=O)O)s3)n2)cc1 | 250 | > 10000 | 160
31 | CCCCC#Cc1c(N)cc(C(=O)NCc2ccc(S(C)(=O)=O)cc2)nc1OCC | > 10000 |  | 
32 | CCOc1nc(C(=O)NCc2ccc(S(C)(=O)=O)cc2)cc(N)c1/C=C/c1ccccc1 | 2430 | 6920 | 4130
33 | CC(C)COc1nc(C(=O)NCc2ccc(S(C)(=O)=O)cc2)cc(N)c1C#N | 88 | 700 | 370
34 | CS(=O)(=O)c1ccc(CNC(=O)c2cc(N)c(C#N)c(NC3CCC3)n2)cc1 | 85 | 620 | 160
35 | CCOc1nc(C(=O)NCc2ccc(S(C)(=O)=O)cc2)cc(N)c1C#CCO | 1090 | 5700 | 
36 | C/C=C\c1nc(C(=O)NCc2ccc(S(C)(=O)=O)cc2)cc(N)c1C#N | 150 | 5500 | 260
37 | CC(=O)NCCNc1nc(C(=O)NCc2ccc(S(C)(=O)=O)cc2)cc(N)c1C#N | 59 | > 10000 | 81
38 | CS(=O)(=O)c1ccc(CNC(=O)c2cc(N)c(C#N)c(-c3cccc(O)c3)n2)cc1 | 200 | 9400 | 240
39 | CN(C)CCNc1nc(C(=O)NCc2ccc(S(C)(=O)=O)cc2)cc(N)c1C#N | 7300 |  | 9200
40 | CS(=O)(=O)c1ccc(CNC(=O)c2cc(N)c(C#N)c(NCc3ccccc3)n2)cc1 | 820 |  | 4700
41 | CS(=O)(=O)c1ccc(CNC(=O)c2cc(N)c(C#N)c(OCC3CCCC3)n2)cc1 | 390 | 490 | 610
42 | CS(=O)(=O)c1ccc(CNC(=O)c2cc(N)c(C#N)c(NCCCO)n2)cc1 | 54 | 8300 | 180
43 | COCCNc1nc(C(=O)NCc2ccc(S(C)(=O)=O)cc2)cc(N)c1C#N | 120 | 5900 | 210
44 | CS(=O)(=O)c1ccc(CNC(=O)c2cc(N)c(C#N)c(NCCO)n2)cc1 | 93 | > 10000 | 150
45 | CS(=O)(=O)c1ccc(CNC(=O)c2cc(N)c(C#N)c(-c3cccc(Cl)c3)n2)cc1 | 1180 | 1200 | 840
46 | C[C@H](CO)Nc1nc(C(=O)NCc2ccc(S(C)(=O)=O)cc2)cc(N)c1C#N | 180 | > 10000 | 320
47 | COc1ccc(Oc2nc(C(=O)NCc3ccc(S(C)(=O)=O)cc3)cc(N)c2C#N)cc1 | 420 |  | 450
48 | CS(=O)(=O)c1ccc(CNC(=O)c2cc(N)c(C#N)c(NCCc3ccccc3)n2)cc1 | 260 | 2700 | 1000
49 | CS(=O)(=O)c1ccc(CNC(=O)c2cc(N)c(C#N)c(/C=C/CCO)n2)cc1 | 170 | 5300 | 240
50 | CS(=O)(=O)c1ccc(CNC(=O)c2cc(N)c(C#N)c(NCCN)n2)cc1 | 1600 |  | 
51 | CS(=O)(=O)c1ccc(CNC(=O)c2cc(N)c(C#N)c(-c3cncnc3)n2)cc1 | 620 | > 10000 | 860
52 | CCOc1nc(C(=O)NCc2ccc(S(C)(=O)=O)cc2)cc(N)c1/C=C/C(C)(C)C | 2930 | > 10000 | 4160
53 | CS(=O)(=O)c1ccc(CNC(=O)c2cc(N)c(C#N)c(-c3ccsc3CO)n2)cc1 | 570 | 10800 | 680
54 | CS(=O)(=O)c1ccc(CNC(=O)c2cc(N)c(C#N)c(-c3ccncc3)n2)cc1 | 530 |  | 660
55 | CCOc1nc(C(=O)NCc2ccc(S(C)(=O)=O)cc2)cc(N)c1C#CCCO | 2240 | 7360 | 4610
